Reference: patent US20240245696A1, “INHIBITORS OF DNA PK AND USES THEREOF” (BioVentures, LLC, priority 2017, published 2024)

Legend:
[1] = test system: IL-2; experiment: qPCR of IL-2 expression in stimulated Jurkat cells; assay type: cell-based, human; conditions: PHA+PMA stimulation
Procedure: (§1) Evaluation of PD-1 and IL-2 expression: The effect of NU7441 on the expression of PD-1, a protein with immunosuppressant function, and IL-2 was examined in Jurkat cells following stimulation with PHA+PMA and treatment with the inhibitor NU7441. qPCR analysis was performed using primers specific for PD1 and IL-2 sequences.

[2] = test system: PD-1; experiment: qPCR of PD-1 expression in stimulated Jurkat cells; assay type: cell-based, human; conditions: PHA+PMA stimulation
Procedure: as §1

## C=CC[C@@H]1/C=C(\C)C[C@H](C)C[C@H](OC)[C@H]2O[C@@](O)(C(=O)C(=O)N3CCCC[C@H]3C(=O)O[C@H](/C(C)=C/[C@@H]3CC[C@@H](O)[C@H](OC)C3)[C@H](C)[C@@H](O)CC1=O)[C@H](C)C[C@@H]2OC [FK506, Tacrolimus]
[1]
  IL-2 expression: reduced
[2]
  expression level of PD-1: significantly reduce expression
